Measurements published in patent US5189144A, “Human calpastatin-like polypeptide” (Takara Shuzo Co., Ltd., priority 1989, dated 1993).
Entries after “also recorded” stand apart in the source; their conditions may differ. No end group written: not given here.

Test system: calpain
Assay: assay of calpain inhibition (casein substrate, acid-soluble fraction read at 280 nm)
Type: biochemical
Details: 15 min at 30° C. after adding calcium chloride, absorbance at 280 nm of the supernatant, profiles only in FIGS. 3 and 4
Method: Confirmation of expression can be done by the measurement of the inhibition of calpain, as in the measurement done with casein as the substrate, with extraction from a culture fluid of E. coli, and measurement of the decrease in the acid-soluble fraction by the use of spectroscopy.
The assay of calpain inhibition was done as described below (A. Kitahara et al., J. Biochem., 95, 1759-1766, 1984). First, 10 μl of the sample 2.5 μl of calpain at the concentration of 1 mg/ml, 40 μl of 2% casein in imidazole, and 20 μl of crysteine at the concentration of 6 mg/ml were mixed together, giving a total volume of 180 μl. Next, the mixture was treated for 5 min at 30° C., after which 20 μl of 50 mM calcium chloride was added, and the mixture was incubated for 15 min at 30° C. Then 200 μl of 5% trichloroacetic acid was added to stop the reaction, and the mixture was centrifuged at 12,000 rpm for 10 min. The supernatant was obtained, and its absorbance at 280 nm was measured, from which the inhibitory activity toward calpain was calculated.

Row | Sequence | inhibitory activity toward calpain
1 | TYIEELGKREVTIPPKYR [polypeptide of 18 amino acids] | can inhibit calpain; also recorded: still has activity; also recorded: inhibited calpain
2 | YIEELGKREVTIPPKYR [polypeptide with 17 amino acids, reference compound] | almost undetectable
3 | DPMSSTYIEELGKREVTIPPKYRELL [polypeptide of 26 amino acids] | can inhibit calpain; also recorded: had calpastatin-like activity
4 | TYIEELGKREVTIPPKYRELL [polypeptide of 21 amino acids] | can inhibit calpain; also recorded: had calpastatin-like activity
